Laboratory results taken from PubChem BioAssay (NCI).
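All cell lines were grown in 96-well plates and treated with compound for 48 hours. TGI marks complete inhibition of growth.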

Tested on: SK-MEL-5 melanoma
Test: DTP human tumour cell line panel, 48 h

SMILES	TGI [µM]
Cc1nc(-c2ccc(N=Cc3ccc(N(CCOS(C)(=O)=O)CCOS(C)(=O)=O)cc3C)cc2)cs1	38.5
Cc1ccc2c(=O)cc(-c3ccc(-c4ccccc4)s3)[nH]c2n1	> 39.7
OC1(c2ccccc2)CSC2=Nc3ccccc3C3CCN1N23 (stereo not drawn)	35.9

Tested on: IGROV1 ovarian
Test: DTP human tumour cell line panel, 48 h

SMILES	TGI [µM]
Nc1nc(Cl)c(N)c(NCC2(CO)CC(CCCc3ccccc3)C2)n1 (stereo not drawn)	> 73.9
COc1nc(N)c(N=CC(OC(C)=O)C(OC(C)=O)C(COC(C)=O)OC(C)=O)c(=O)n1C (stereo not drawn)	> 100
C#CCOCC12C=CC(O1)C1C(=O)OCC12 (stereo not drawn)	> 100
Cc1nc(-c2ccc(N=Cc3ccc(N(CCOS(C)(=O)=O)CCOS(C)(=O)=O)cc3C)cc2)cs1	> 100
Cc1ccc2c(=O)cc(-c3ccc(-c4ccccc4)s3)[nH]c2n1	> 100
OC1(c2ccccc2)CSC2=Nc3ccccc3C3CCN1N23 (stereo not drawn)	27.4

Tested on: SR leukemia
Test: DTP human tumour cell line panel, 48 h

SMILES	TGI [µM]
Nc1nc(Cl)c(N)c(NCC2(CO)CC(CCCc3ccccc3)C2)n1 (stereo not drawn)	> 100
COc1nc(N)c(N=CC(OC(C)=O)C(OC(C)=O)C(COC(C)=O)OC(C)=O)c(=O)n1C (stereo not drawn)	> 100
C#CCOCC12C=CC(O1)C1C(=O)OCC12 (stereo not drawn)	> 100
Cc1nc(-c2ccc(N=Cc3ccc(N(CCOS(C)(=O)=O)CCOS(C)(=O)=O)cc3C)cc2)cs1	> 100
Cc1ccc2c(=O)cc(-c3ccc(-c4ccccc4)s3)[nH]c2n1	8.35
OC1(c2ccccc2)CSC2=Nc3ccccc3C3CCN1N23 (stereo not drawn)	55.4

Tested on: UACC-257 melanoma
Test: DTP human tumour cell line panel, 48 h

SMILES	TGI [µM]
Nc1nc(Cl)c(N)c(NCC2(CO)CC(CCCc3ccccc3)C2)n1 (stereo not drawn)	> 100
COc1nc(N)c(N=CC(OC(C)=O)C(OC(C)=O)C(COC(C)=O)OC(C)=O)c(=O)n1C (stereo not drawn)	> 100
C#CCOCC12C=CC(O1)C1C(=O)OCC12 (stereo not drawn)	> 100
Cc1nc(-c2ccc(N=Cc3ccc(N(CCOS(C)(=O)=O)CCOS(C)(=O)=O)cc3C)cc2)cs1	> 100
Cc1ccc2c(=O)cc(-c3ccc(-c4ccccc4)s3)[nH]c2n1	> 100
OC1(c2ccccc2)CSC2=Nc3ccccc3C3CCN1N23 (stereo not drawn)	86.8

Tested on: MDA-N
Test: DTP human tumour cell line panel, 48 h

SMILES	TGI [µM]
Nc1nc(Cl)c(N)c(NCC2(CO)CC(CCCc3ccccc3)C2)n1 (stereo not drawn)	> 100
COc1nc(N)c(N=CC(OC(C)=O)C(OC(C)=O)C(COC(C)=O)OC(C)=O)c(=O)n1C (stereo not drawn)	> 100
C#CCOCC12C=CC(O1)C1C(=O)OCC12 (stereo not drawn)	> 100
Cc1nc(-c2ccc(N=Cc3ccc(N(CCOS(C)(=O)=O)CCOS(C)(=O)=O)cc3C)cc2)cs1	> 100
Cc1ccc2c(=O)cc(-c3ccc(-c4ccccc4)s3)[nH]c2n1	> 100
OC1(c2ccccc2)CSC2=Nc3ccccc3C3CCN1N23 (stereo not drawn)	27.2

Tested on: HL-60(TB) leukemia
Test: DTP human tumour cell line panel, 48 h

SMILES	TGI [µM]
Nc1nc(Cl)c(N)c(NCC2(CO)CC(CCCc3ccccc3)C2)n1 (stereo not drawn)	32.2
COc1nc(N)c(N=CC(OC(C)=O)C(OC(C)=O)C(COC(C)=O)OC(C)=O)c(=O)n1C (stereo not drawn)	> 100
C#CCOCC12C=CC(O1)C1C(=O)OCC12 (stereo not drawn)	> 100
Cc1nc(-c2ccc(N=Cc3ccc(N(CCOS(C)(=O)=O)CCOS(C)(=O)=O)cc3C)cc2)cs1	47.3
Cc1ccc2c(=O)cc(-c3ccc(-c4ccccc4)s3)[nH]c2n1	> 100
OC1(c2ccccc2)CSC2=Nc3ccccc3C3CCN1N23 (stereo not drawn)	71.1

Tested on: OVCAR-4 ovarian
Test: DTP human tumour cell line panel, 48 h

SMILES	TGI [µM]
Nc1nc(Cl)c(N)c(NCC2(CO)CC(CCCc3ccccc3)C2)n1 (stereo not drawn)	> 100
COc1nc(N)c(N=CC(OC(C)=O)C(OC(C)=O)C(COC(C)=O)OC(C)=O)c(=O)n1C (stereo not drawn)	> 100
C#CCOCC12C=CC(O1)C1C(=O)OCC12 (stereo not drawn)	> 100
Cc1nc(-c2ccc(N=Cc3ccc(N(CCOS(C)(=O)=O)CCOS(C)(=O)=O)cc3C)cc2)cs1	> 100
Cc1ccc2c(=O)cc(-c3ccc(-c4ccccc4)s3)[nH]c2n1	> 100
OC1(c2ccccc2)CSC2=Nc3ccccc3C3CCN1N23 (stereo not drawn)	> 100

Tested on: NCI-H460 lung
Test: DTP human tumour cell line panel, 48 h

SMILES	TGI [µM]
Nc1nc(Cl)c(N)c(NCC2(CO)CC(CCCc3ccccc3)C2)n1 (stereo not drawn)	> 100
COc1nc(N)c(N=CC(OC(C)=O)C(OC(C)=O)C(COC(C)=O)OC(C)=O)c(=O)n1C (stereo not drawn)	> 100
C#CCOCC12C=CC(O1)C1C(=O)OCC12 (stereo not drawn)	> 100
Cc1nc(-c2ccc(N=Cc3ccc(N(CCOS(C)(=O)=O)CCOS(C)(=O)=O)cc3C)cc2)cs1	> 100
